Structures are written as SMILES. “Also recorded” adds a separate entry of the source.

Data set [1] concerns the target T1, Recombinant human GST A1-1 (Homo sapiens, UniProt P08263).
T1 construct: purchased EMD Biosciences, Inc., San Diego, Calif., U.S.A
T1 sequence (P08263 1-222): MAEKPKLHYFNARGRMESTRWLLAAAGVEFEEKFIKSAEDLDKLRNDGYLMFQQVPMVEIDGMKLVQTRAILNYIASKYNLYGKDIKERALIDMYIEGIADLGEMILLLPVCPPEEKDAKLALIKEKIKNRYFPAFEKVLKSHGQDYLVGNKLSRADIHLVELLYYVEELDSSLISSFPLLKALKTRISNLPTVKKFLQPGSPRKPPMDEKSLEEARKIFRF
Kind of data set: Inhibition of glutathione S-transferase isoenzyme GST A1-1 (CDNB/GSH, absorbance at 340 nm). The class given is biochemical. Conditions: diacids (row number n = compound nA), pH 6.5, 2% DMSO. Here is the method:
(§1) In vitro Example 1. Inhibition of glutathione S-transferase isoenzymes. […] For each assay, the test compound and GSH were added to the isoenzyme. Immediately after the addition of CDNB solution to the isoenzyme/compound/GSH solution, the absorbance at 340 nm was recorded continuously for 5 min on a SpectraMax plate reader (Molecular Devices, Inc., Sunnyvale, Calif., U.S.A.). The GST inhibitory activity of each compound was calculated from the slopes of the absorbance/time curves at the various concentrations of test compound. All assays were conducted in duplicate wells, with DMSO control, with the final DMSO concentration maintained at 2%.

Data set [2] deals with T2, Recombinant human GST M1-1 (Homo sapiens, UniProt P09488).
T2 construct: purchased EMD Biosciences, Inc., San Diego, Calif., U.S.A
T2 sequence (P09488 2-218 limits assumed): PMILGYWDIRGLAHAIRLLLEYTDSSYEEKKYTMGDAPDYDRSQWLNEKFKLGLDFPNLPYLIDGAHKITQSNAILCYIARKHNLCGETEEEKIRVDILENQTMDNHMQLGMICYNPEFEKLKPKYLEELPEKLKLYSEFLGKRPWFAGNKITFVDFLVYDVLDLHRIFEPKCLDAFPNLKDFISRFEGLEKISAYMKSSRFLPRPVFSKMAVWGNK
Kind of data set: Inhibition of glutathione S-transferase isoenzyme GST M1-1 (CDNB/GSH, absorbance at 340 nm). The class given is biochemical. The conditions noted are these: diacids (row number n = compound nA), pH 6.5, 2% DMSO. Here is the method:
as §1

Data set [3] has as its target T3, Recombinant human GST P1-1 (Homo sapiens, UniProt P09211).
T3 construct: purchased EMD Biosciences, Inc., San Diego, Calif., U.S.A
The data set can be described thus: Inhibition of glutathione S-transferase isoenzyme GST P1-1 (CDNB/GSH, absorbance at 340 nm). The class given is biochemical. The conditions noted are these: diacids (row number n = compound nA), pH 6.5, 2% DMSO. Here is the method:
as §1

For data set [4] the following is noted: both in vitro and in vivo; cited from earlier work.
The subject of data set [5] is HL-60 cells. The data set can be described thus: Enhancement of differentiation of HL-60 cells (CD11b surface expression, flow cytometry). The class given is cell-based, human. Conditions: diethyl esters, 24 hours. Here is the method:
Some of the diethyl ester compounds of this invention were also tested for their ability to enhance the differentiation of HL-60 cells. This illustrates the beneficial effect of the compounds of this invention in stimulating differentiation of the HL-60 human leukemia cell line in vitro. […] The cells were harvested by centrifugation (1250 rpm for 5 min at 20° C.) and washed with 2 mL ice-cold phosphate-buffered saline (PBS) containing 2% FBS, then stained with 10 μL phycoerythrin-conjugated anti-CD11b antibody or 10 μL phycoerythrin-conjugated isotype control antibody. After standing for 30 min on ice, the cells were re-suspended in 2 mL ice-cold PBS containing 2% FBS. The cells were harvested by centrifugation (1250 rpm for 5 min at 20° C.) and resuspended in 0.4 mL PBS containing 2% FBS. The specific cell surface expression of CD11b, a marker for granulocytes and monocytes, was detected by flow cytometry using a FACSCalibur analyzer (BD Biosciences). All assays were conducted in triplicate, with DMSO control. The extent of differentiation was expressed as a multiple of the signal from the DMSO control.

The conditions of data set [6]: Phase II, interim results; cited from earlier work.
The test system of data set [7] is HL-60 cells. Conditions: background statement; cited from earlier work.

T3 sequence (P09211 2-210 limits assumed): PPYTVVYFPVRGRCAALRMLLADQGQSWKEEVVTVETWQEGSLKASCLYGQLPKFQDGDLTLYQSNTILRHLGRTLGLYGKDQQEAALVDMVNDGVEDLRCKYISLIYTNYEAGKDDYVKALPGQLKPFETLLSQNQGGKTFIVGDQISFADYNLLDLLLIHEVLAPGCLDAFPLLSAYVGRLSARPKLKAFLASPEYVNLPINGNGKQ

Turning to `N[C@@H](CCC(=O)N[C@@H](CS(=O)(=O)Cc1ccc([N+](=O)[O-])o1)C(=O)N[C@@H](C(=O)O)c1ccccc1)C(=O)O` [Compound 14A, L-γ-glutamyl-3-[(5-nitrofuran-2-ylmethyl)sulfonyl]-L-alanyl-D-phenylglycine], the IC50 stood at 52 µM in data set [1], 100 µM in data set [2] and 3.2 µM in data set [3].

Regarding `CCOC(=O)[C@@H](N)CCC(=O)N[C@@H](CSCc1ccccc1)C(=O)N[C@@H](C(=O)OCC)c1ccccc1` [TLK199], the “Potentiation of the activity of cytotoxic agents” value in data set [4] was “chemopotentiation activity in an animal model”. In data set [5], the “Differentiation of HL-60 cells (CD11b expression as multiple of DMSO control)” value was “enhances differentiation”. In addition, in data set [6], the “Hematologic response in humans” value was “myelostimulant activity in humans; also recorded: multilineage hematologic improvement” and the “Tolerability in MDS patients” value was “well tolerated”. Moreover, in data set [7], the “Differentiation of HL-60 promyelocytic leukemia cells in vitro” value is on record as “induce the differentiation of HL-60 promyelocytic leukemia cells”.
